This passage reports EC50 results from patent publication US20240327393A1 (SIRONAX LTD., priority 2021, published 2024).

The first assay has as its system HT-1080 (ATCC, CCL-121) cells. Nature of the assay: HT-1080 cell viability assay with ferroptosis inducer RSL3 (Cell Titer-Glo). The assay is classed as cell-based. Particulars: Homo sapiens; HT-1080 cells treated with RSL3; 3-fold, 10-point dilution, 1.1 μM highest concentration; Table 2; read-out: EC50 (nM), ferroptosis inhibitory activity. Summed up: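 HT-1080 cells (6000 per well) were cultured overnight at 37 °C, then co-treated with RSL3 and compound in a 3-fold, 10-point series topping at 1.1 μM. Viability was read by CellTiter-Glo luminescence and normalized to untreated controls. EC50 came from a sigmoidal non-linear regression fit.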
Regarding `CN1CCC(N2Cc3cc(Nc4ccc(N5CCC(C(F)(F)F)CC5)cc4)ccc3C2=O)CC1` [Compound 208, 2-(1-methylpiperidin-4-yl)-5-((4-(4-(trifluoromethyl)piperidin-1-yl)phenyl)amino)isoindolin-1-one], the EC50 was in the range of 0.1 to 100 nM.
Same read-out and setting: in the case of `CC1CCN(c2ccc(Nc3ccc4c(c3)ncn4C)cc2)CC1` [Compound 285, 1-methyl-N-(4-(4-methylpiperidin-1-yl)phenyl)-1H-benzo[d]imidazol-5-amine] it was 0.1 to 100 nM; in that of `CC1CCN(c2ccc(Nc3ccc4c(c3)N(C)CC4(C)C)cc2)CC1` [Compound 338, 1,3,3-trimethyl-N-(4-(4-methylpiperidin-1-yl)phenyl)indolin-6-amine], 0.1 to 100 nM.
For `CN1Cc2ccc(Nc3ccc(N4CCC(F)(F)CC4)cc3)cc2C1=O` [Compound 168, 6-((4-(4,4-difluoropiperidin-1-yl)phenyl)amino)-2-methylisoindolin-1-one], the EC50 fell in the range of 0.1 to 100 nM.
As to `FC(F)(F)C1CCN(c2ccc(Nc3ccc4ccoc4c3)cc2)CC1` [Compound 351, N-(4-(4-(trifluoromethyl)piperidin-1-yl)phenyl)benzofuran-6-amine], the EC50 was in the range of 0.1 to 100 nM.
Same read-out and setting: then `FC(F)(F)C1CCN(c2ccc(Nc3ccc4occc4c3)cc2)CC1` [Compound 337, N-(4-(4-(trifluoromethyl)piperidin-1-yl)phenyl)benzofuran-5-amine], with 0.1 to 100 nM.
Same read-out and setting: then `CN1C(=O)COc2cc(Nc3ccc(N4CCCCC4)cc3)ccc21` [Compound 29], with 0.1 to 100 nM; and `CN1C(=O)COc2cc(Nc3ccc(N4C[C@@H]5C[C@H]4CO5)c(F)c3)ccc21` [Compound 97, 7-((4-((1S,4S)-2-oxa-5-azabicyclo[2.2.1]heptan-5-yl)-3-fluorophenyl)amino)-4-methyl-2H-benzo[b][1,4]oxazin-3(4H)-one], with 0.1 to 100 nM.
The same measure, in the same setting: then `CC1CN(c2ccc(Nc3ccc4c(c3)C(C)(C)C(=O)N4C)cc2)CC(C)O1` (stereo not shown) [Compound 428, 5-((4-(2,6-dimethylmorpholino)phenyl)amino)-1,3,3-trimethylindolin-2-one], with 0.1 to 100 nM; and `CC1CCN(c2ccc(Nc3ccc4c(=O)n(C)n(C)c4c3)cc2)CC1` [Compound 250, 1,2-dimethyl-6-((4-(4-methylpiperidin-1-yl)phenyl)amino)-1,2-dihydro-3H-indazol-3-one], with 0.1 to 100 nM; and `CN1Cc2cc(Nc3ccc(N4CCC(C(F)(F)F)CC4)c(F)c3)ccc2C1=O` [Compound 204, 5-((3-fluoro-4-(4-(trifluoromethyl)piperidin-1-yl)phenyl)amino)-2-methylisoindolin-1-one], with 0.1 to 100 nM.
Regarding `Cn1[nH]c2cc(Nc3ccc(N4CCCCC4)cc3)ccc2c1=O` [Compound 257, 2-methyl-6-((4-(piperidin-1-yl)phenyl)amino)-1,2-dihydro-3H-indazol-3-one], the concentration giving a half-maximal response (EC50) lay in the range of 0.1 to 100 nM.
As for `Cn1c(=O)n(C)c2cc(Nc3ccc(C(C)(C)C)cc3)ccc21` [Compound 261, 5-((4-(tert-butyl)phenyl)amino)-1,3-dimethyl-1,3-dihydro-2H-benzo[d]imidazol-2-one], the EC50 is 0.1 to 100 nM.
Still for that read-out and setting: in the case of `Cc1c(N2CCC(C)CC2)ccc(Nc2ccc3c(c2)n(C)c(=O)n3C)c1F` [Compound 263, 5-((2-fluoro-3-methyl-4-(4-methylpiperidin-1-yl)phenyl)amino)-1,3-dimethyl-1,3-dihydro-2H-benzo[d]imidazol-2-one] it was 0.1 to 100 nM.
On the same count and under the same terms, then `CN1Cc2cc(Nc3ccc(N4CCC(C(F)(F)F)CC4)cc3)cnc2C1=O` [Compound 194, 6-methyl-3-((4-(4-(trifluoromethyl)piperidin-1-yl)phenyl)amino)-5,6-dihydro-7H-pyrrolo[3,4-b]pyridin-7-one], with 0.1 to 100 nM.
On to `COc1cc(N2CCC(C(F)(F)F)CC2)ncc1Nc1ccc2c(c1)n(C)c(=O)n2C` [Compound 380, 5-((4-methoxy-6-(4-(trifluoromethyl)piperidin-1-yl)pyridin-3-yl)amino)-1,3-dimethyl-1,3-dihydro-2H-benzo[d]imidazol-2-one], for which the EC50 fell in the range of 0.1 to 100 nM.
For `CC1CN(c2ccc(Nc3ccc4c(c3)n(C)c(=O)n4CCN(C)C)cc2)CC(C)O1` (stereo not shown) [Compound 426, 1-(2-(dimethylamino)ethyl)-5-((4-(2,6-dimethylmorpholino)phenyl)amino)-3-methyl-1,3-dihydro-2H-benzo[d]imidazol-2-one], the EC50 lay within 0.1 to 100 nM.
On the same count and under the same terms, then `CC1(C)CCC(c2ccc(Oc3ccc4nc(N)sc4c3)cc2)CC1` [Compound 408, 6-(4-(4,4-dimethylcyclohexyl)phenoxy)benzo[d]thiazol-2-amine], with 0.1 to 100 nM; and `CC(=O)N1Cc2ccc(Nc3ccc(N4CCC(F)(F)CC4)cc3)cc2C1` [Compound 166, 1-(5-((4-(4,4-difluoropiperidin-1-yl)phenyl)amino)isoindolin-2-yl) ethan-1-one], with 0.1 to 100 nM; and `CC1CCC(N2Cc3cc(Nc4ccc(N5CCC(C(F)(F)F)CC5)cc4)ccc3C2=O)CC1` (stereo not shown) [Compound 221, 2-(4-methylcyclohexyl)-5-((4-(4-(trifluoromethyl)piperidin-1-yl)phenyl)amino)isoindolin-1-one], with 0.1 to 100 nM.
`CCC1Oc2cc(Nc3ccc(N4CC(C)OC(C)C4)cc3)ccc2NC1=O` (stereo not shown) [Compound 154, 7-((4-(2,6-dimethylmorpholino)phenyl)amino)-2-ethyl-2H-benzo[b][1,4]oxazin-3(4H)-one]: the EC50 was in the range of 0.1 to 100 nM.
Consider `CC1CCN(c2ccc(Nc3ccc4ccn(C)c4c3)cc2)CC1` [Compound 330, 1-methyl-N-(4-(4-methylpiperidin-1-yl)phenyl)-1H-indol-6-amine], for which the half-maximal effective concentration (EC50) lay within 0.1 to 100 nM.
Same read-out and setting: in the case of `CCCOc1cc(Nc2ccc3c(c2)OCC(=O)N3C)ccc1N1CCC(C(F)(F)F)CC1` [Compound 8, 4-methyl-7-((3-propoxy-4-(4-(trifluoromethyl)piperidin-1-yl)phenyl)amino)-2H-benzo[b][1,4]oxazin-3(4H)-one] it was 0.1 to 100 nM.
Still for that read-out and setting: then `CCN(CCCOC)c1ccc(Nc2ccc3c(c2)OCC(=O)N3C)cc1` [Compound 31, 7-((4-(ethyl(3-methoxypropyl)amino)phenyl)amino)-4-methyl-2H-benzo[b][1,4]oxazin-3(4H)-one], with 0.1 to 100 nM; and `Cn1c(=O)n(C)c2ncc(Nc3ccc(N4CCC(C(F)(F)F)CC4)cc3)cc21` [Compound 343, 1,3-dimethyl-6-((4-(4-(trifluoromethyl)piperidin-1-yl)phenyl)amino)-1,3-dihydro-2H-imidazo[4,5-b]pyridin-2-one], with 0.1 to 100 nM; and `Cn1c(=N)n(C)c2cc(Nc3ccc(N4CCC(C(F)(F)F)CC4)cc3)ccc21` [Compound 302, 2-imino-1,3-dimethyl-N-(4-(4-(trifluoromethyl)piperidin-1-yl)phenyl)-2,3-dihydro-1H-benzo[d]imidazol-5-amine], with 0.1 to 100 nM.
Same read-out and setting: in the case of `COc1cc(Nc2ccc3c(c2)OCC(=O)N3C)ccc1N1CCC(C(F)(F)F)CC1` [Compound 91, 7-((3-methoxy-4-(4-(trifluoromethyl)piperidin-1-yl)phenyl)amino)-4-methyl-2H-benzo[b][1,4]oxazin-3(4H)-one] it was 0.1 to 100 nM.

The same assay, now with this note: Homo sapiens; HT-1080 cells treated with RSL3; 3-fold, 10-point dilution, 1.1 μM highest concentration; Table 3; read-out: EC50 (nM), ferroptosis inhibitory activity.
With `Cc1cc(N2CCC(C(F)(F)F)CC2)ccc1Nc1ccc2c(c1)OC(CN)C(=O)N2C` (stereo not shown) [Compound 607, 2-(aminomethyl)-4-methyl-7-((2-methyl-4-(4-(trifluoromethyl)piperidin-1-yl)phenyl)amino)-2H-benzo[b][1,4]oxazin-3(4H)-one], the EC50 was in the range of 0.1 to 100 nM.
On the same count and under the same terms, in the case of `Cc1cc(N2CC(F)C2)ccc1Nc1ccc2c(c1)OCC(=O)N2` [Compound 572, 7-(4-(3-fluoroazetidin-1-yl)-2-methylphenylamino)-2H-benzo[b][1,4]oxazin-3(4H)-one] it was 0.1 to 100 nM.
The same measure, in the same setting: then `COc1cc(Nc2cc(C)c3c(c2)OCC(=O)N3)c(C)cc1N1CCC(C(F)(F)F)CC1` [Compound 548, 7-((5-methoxy-2-methyl-4-(4-(trifluoromethyl)piperidin-1-yl)phenyl)amino)-5-methyl-2H-benzo[b][1,4]oxazin-3(4H)-one], with 0.1 to 100 nM; and `O=C1COc2cc(Nc3ccc(N4CCC(F)(F)CC4)cc3)ccc2N1` [Compound 524, 7-((4-(4,4-difluoropiperidin-1-yl)phenyl)amino)-2H-benzo[b][1,4]oxazin-3(4H)-one], with 0.1 to 100 nM.
Still for that read-out and setting: in the case of `Cc1cc(N2CCC(C(F)(F)F)CC2)ccc1Nc1ccn2ncc(C(N)=O)c2c1` [Compound 625, 5-((2-methyl-4-(4-(trifluoromethyl)piperidin-1-yl)phenyl)amino) pyrazolo[1,5-a]pyridine-3-carboxamide] it was 0.1 to 100 nM; in that of `Cc1cc(OC(F)F)ccc1Nc1ccc2c(c1)OCC(=O)N2` [Compound 653, 7-[4-(difluoromethoxy)-2-methyl-anilino]-4H-1,4-benzoxazin-3-one], 0.1 to 100 nM; in that of `Cc1cc(N2CC(F)C2)ccc1Nc1ccc2c(c1)OCCC(=O)N2` [Compound 610, 8-((4-(3-fluoroazetidin-1-yl)-2-methylphenyl)amino)-2,3-dihydrobenzo[b][1,4]oxazepin-4(5H)-one], 0.1 to 100 nM.
As for `Cc1cc(N2CC3CC3C2)ccc1Nc1ccc2c(c1)OCC(=O)N2` (stereo not shown) [Compound 641, 7-((4-(3-azabicyclo[3.1.0]hexan-3-yl)-2-methylphenyl)amino)-2H-benzo[b][1,4]oxazin-3(4H)-one], the EC50 fell in the range of 0.1 to 100 nM.
The same measure, in the same setting: in the case of `CN1C(=O)COc2cc(Nc3ccc(N4CCC(C(F)(F)F)CC4)cc3)c(O)cc21` [Compound 495, 6-hydroxy-4-methyl-7-({4-[4-(trifluoromethyl)piperidin-1-yl]phenyl}amino)-2H-1,4-benzoxazin-3-one] it was 0.1 to 100 nM; in that of `Cc1c(Nc2ccc3c(c2)OCC(=O)N3)ccc(N2CCC(C(F)(F)F)CC2)c1C#N` [Compound 537, 2-methyl-3-((3-oxo-3,4-dihydro-2H-benzo[b][1,4]oxazin-7-yl)amino)-6-(4-(trifluoromethyl)piperidin-1-yl)benzonitrile], 0.1 to 100 nM.
